ChEMBL document CHEMBL3407403, “Synthetic modification of hydroxychavicol by Mannich reaction and alkyne-azide cycloaddition derivatives depicting cytotoxic potential” (Eur J Med Chem, 2015)

Key:
HepG2 [1] = assay: Growth inhibition of human HepG2 cells at 50 uM after 72 hrs by MTT assay; type: functional; conditions: HepG2, 72 h, read-out: GI
[2] = Growth inhibition of human MIAPaCa2 cells at 50 uM after 72 hrs by MTT assay; type: functional; conditions: MIA PaCa-2, 72 h, read-out: GI
[3] = Growth inhibition of human HL60 cells at 30 uM after 72 hrs by MTT assay; type: functional; conditions: HL-60, 72 h, read-out: GI
SK-N-SH [4] = assay: Growth inhibition of human SK-N-SH cells at 50 uM after 72 hrs by MTT assay; type: functional; conditions: read-out: GI
SK-N-SH [5] = assay: Growth inhibition of human SK-N-SH cells at 30 uM after 72 hrs by MTT assay; type: functional; conditions: read-out: GI
HepG2 [6] = assay: Growth inhibition of human HepG2 cells at 30 uM after 72 hrs by MTT assay; type: functional; conditions: HepG2, 72 h, read-out: GI
MCF7 [7] = assay: Growth inhibition of human MCF7 cells at 30 uM after 72 hrs by MTT assay; type: functional; conditions: MCF7, 72 h, read-out: GI
[8] = Growth inhibition of human MIAPaCa2 cells at 30 uM after 72 hrs by MTT assay; type: functional; conditions: MIA PaCa-2, 72 h, read-out: GI
MCF7 [9] = assay: Growth inhibition of human MCF7 cells at 50 uM after 72 hrs by MTT assay; type: functional; conditions: MCF7, 72 h, read-out: GI
[10] = Growth inhibition of human HL60 cells at 50 uM after 72 hrs by MTT assay; type: functional; conditions: HL-60, 72 h, read-out: GI
HepG2 [11] = assay: Growth inhibition of human HepG2 cells after 72 hrs by MTT assay; type: functional, cell-based; conditions: HepG2, 72 h
[12] = Growth inhibition of human HL60 cells after 72 hrs by MTT assay; type: functional, cell-based; conditions: HL-60, 72 h
[13] = Growth inhibition of human MIAPaCa2 cells after 72 hrs by MTT assay; type: functional, cell-based; conditions: MIA PaCa-2, 72 h
SK-N-SH [14] = assay: Growth inhibition of human SK-N-SH cells after 72 hrs by MTT assay; type: functional, cell-based
MCF7 [15] = assay: Growth inhibition of human MCF7 cells after 72 hrs by MTT assay; type: functional, cell-based; conditions: MCF7, 72 h
[16] = Growth inhibition of human HL60 cells after 24 hrs by MTT assay; type: functional, cell-based; conditions: HL-60, 24 h

IC50 (HepG2 [11])	IC50 (SK-N-SH [14])	IC50 (MCF7 [15])	SMILES	inhibition of growth at 50 µM (HepG2 [1])	inhibition of growth at 50 µM [2]	inhibition of growth at 30 µM [3]	inhibition of growth at 50 µM (SK-N-SH [4])	inhibition of growth at 30 µM (SK-N-SH [5])	inhibition of growth at 30 µM (HepG2 [6])	inhibition of growth at 30 µM (MCF7 [7])	inhibition of growth at 30 µM [8]	inhibition of growth at 50 µM (MCF7 [9])	inhibition of growth at 50 µM [10]	IC50 [12]	IC50 [13]	IC50 [16]
–	–	–	C=CCc1cc(O)c(O)c(CN2CCC(CCO)CC2)c1	2%	71.8%	39.4%	40.6%	15.3%	2.5%	21.4%	54.4%	33.3%	52.1%	–	–	–
22 µM	11 µM	16 µM	C=CCc1cc(O)c(O)c(CN2CCC(Cc3ccccc3)CC2)c1	84%	90.9%	90.6%	83.4%	78.8%	70.2%	70.9%	88.9%	86.3%	94.4%	3 µM	4 µM	15 µM
–	–	–	C=CCc1cc(O)c(O)c(CN2CCN(c3ccc(C(C)=O)cc3)CC2)c1	65.9%	75.1%	87.9%	54.6%	53.8%	46.1%	42.8%	86.2%	47.1%	89.2%	–	–	–
–	–	–	C=CCc1ccc(OCc2cn(-c3ccccc3Cl)nn2)c(O)c1	4.7%	57.7%	38.7%	42.8%	10.2%	2.5%	58.3%	46.6%	34.3%	43.2%	–	–	–
–	–	–	C=CCc1ccc(OCc2cn(-c3cccc([N+](=O)[O-])c3)nn2)c(O)c1	30.2%	58.8%	29.8%	68.9%	31.1%	15.2%	42.3%	42.9%	56.5%	65.5%	–	–	–
–	–	–	C=CCc1cc(O)c(O)c(CN2CCC(CO)CC2)c1	5.4%	38.6%	37.7%	49.4%	21.9%	4.7%	26.2%	34.1%	32.3%	43.3%	–	–	–
–	–	–	C=CCc1ccc(OCc2cn(-c3ccc(OC)cc3)nn2)c(O)c1	49.9%	88.2%	21.3%	68.5%	31.5%	15.4%	38.8%	62.3%	57.2%	38.9%	–	–	–
–	–	–	C=CCc1cc(O)c(O)c(CN2CCC(C)CC2)c1	69.7%	90.6%	91.1%	84.2%	74.7%	57.6%	41.7%	91.5%	54.2%	91.8%	–	–	–
